Some test systems named below: ItL-02; ItL-01; ItL-03.
Settings in all cases: 0.1 M acetate buffer pH 4, 25 °C, 30 min
Substrate in the data set “purified protein”: CCn1c(=NN=c2sc3cc(S(=O)(=O)O)ccc3n2CC)sc2cc(S(=O)(=O)O)ccc21
In words: purified protein. The format is biochemical, Escherichia coli.

For orientation: Km means the concentration of substrate that gives half-maximal velocity. For `CCn1c(=NN=c2sc3cc(S(=O)(=O)O)ccc3n2CC)sc2cc(S(=O)(=O)O)ccc21` [ABTS, 2,2′-azino-bis(3-ethylbenzothiazoline-6-sulfonic acid)], the Km in the data set with ItL-02 amounted to 3.64 ± 0.26 mM; in the data set with ItL-01 it was 4.5 ± 1.42 mM; in the data set on ItL-03 it was 7.76 mM.

B1: CueO (Escherichia coli K-12) (protein)
chain: AERPTLPIPDLLTTDARNRIQLTIGAGQSTFGGKTATTWGYNGNLLGPAVKLQRGKAVTVDIYNQLTEETTLHWHGLEVPGEVDGGPQGIIPPGGKRSVTLNVDQPAATCWFHPHQHGKTGRQVAMGLAGLVVIEDDEILKLMLPKQWGIDDVPVIVQDKKFSADGQIDYQLDVMTAAVGWFGDTLLTNGAIYPQHAAPRGWLRLRLLNGCNARSLNFATSDNRPLYVIASDGGLLPEPVKVSELPVLMGERFEVLVEVNDNKPFDLVTLPVSQMGMAIAPFDKPHPVMRIQPIAISASGALPDTLSSLPALPSLEGLTVRKLQLSMDPMLDMMGMQMLMEKYGDQAMAGMDHSQMMGHMGHGNMNHMNHGGKFDFHHANKINGQAFDMNKPMFAAAKGQYERWVISGVGDMMLHPFHIHGTQFRILSENGKPPAAHRAGWKDTVKVEGNVSEVLVKFNHDAPKEHAYMAHCHLLEHEDTGMMLGFTV
notes: codon-optimised synthetic gene in pET21a(+), E. coli T7 Shuffle, Ni-NTA purified; 50-60 kDa
One may read the kcat as the number of substrate molecules converted per active site and unit of time at saturation. As to B1, in the data set “purified protein”, the Michaelis constant (Km) is on record as 2.39 ± 0.23 mM and the kcat was 0.0045 ± 0.0005 s⁻¹.
